{"source": "ChEMBL document CHEMBL3867469", "about": "“Discovery of phenoxyindazoles and phenylthioindazoles as RORγ inverse agonists” (Bioorg Med Chem Lett, 2016)", "key": {"physchem": {"assay": "physchem", "details": "buffer, pH 6.5"}, "in vitro [1]": {"assay": "in vitro", "details": "human, neonatal keratinocytes", "description": "Photocytotoxicity against human neonatal keratinocytes assessed as decrease in cell viability by measuring ratio of IC50 in presence of UV to IC50 in absence of UV after 30 mins by neutral red dye based assay"}, "[2]": {"molecular_target": "T1, Retinoic acid receptor gamma (Homo sapiens, UniProt P13631)", "T1 sequence (P13631 whole entry)": "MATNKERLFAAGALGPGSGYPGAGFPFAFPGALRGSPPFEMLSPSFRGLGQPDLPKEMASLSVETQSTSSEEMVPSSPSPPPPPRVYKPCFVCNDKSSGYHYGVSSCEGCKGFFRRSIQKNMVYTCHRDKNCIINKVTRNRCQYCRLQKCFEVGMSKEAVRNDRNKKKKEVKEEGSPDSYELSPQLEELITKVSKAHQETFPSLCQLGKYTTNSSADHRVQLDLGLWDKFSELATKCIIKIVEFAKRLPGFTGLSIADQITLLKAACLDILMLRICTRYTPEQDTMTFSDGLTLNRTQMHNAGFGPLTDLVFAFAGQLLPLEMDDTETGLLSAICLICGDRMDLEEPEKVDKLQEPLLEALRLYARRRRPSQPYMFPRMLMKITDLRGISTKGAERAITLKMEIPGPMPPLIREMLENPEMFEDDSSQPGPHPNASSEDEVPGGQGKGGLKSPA", "description": "Inverse agonist activity at GAL4 DBD-fused RARgamma LBD (unknown origin) expressed in human HG5LN cells after 18 hrs by luciferase reporter gene assay"}, "[3]": {"molecular_target": "T2, Nuclear receptor ROR-alpha (Homo sapiens, UniProt P35398)", "T2 sequence (P35398 whole entry)": "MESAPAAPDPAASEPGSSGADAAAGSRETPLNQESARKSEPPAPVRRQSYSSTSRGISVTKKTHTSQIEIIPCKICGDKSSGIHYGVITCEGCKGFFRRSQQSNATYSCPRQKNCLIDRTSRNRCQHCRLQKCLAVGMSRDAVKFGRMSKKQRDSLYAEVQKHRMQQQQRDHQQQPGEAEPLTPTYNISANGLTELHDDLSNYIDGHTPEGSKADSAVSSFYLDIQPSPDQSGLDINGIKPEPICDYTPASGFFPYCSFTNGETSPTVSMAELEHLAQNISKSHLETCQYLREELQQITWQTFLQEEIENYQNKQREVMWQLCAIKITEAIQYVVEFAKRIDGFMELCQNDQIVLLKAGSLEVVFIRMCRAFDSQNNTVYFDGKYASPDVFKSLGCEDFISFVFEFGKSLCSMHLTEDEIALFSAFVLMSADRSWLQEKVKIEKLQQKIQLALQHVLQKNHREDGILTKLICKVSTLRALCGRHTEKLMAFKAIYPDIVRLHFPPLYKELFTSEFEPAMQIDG", "description": "Inverse agonist activity at GAL4 DBD-fused RORalpha LBD (unknown origin) expressed in HG5LN cells after 18 hrs by luciferase reporter gene assay"}, "in vitro [4]": {"assay": "in vitro", "details": "human, plasma", "description": "Fraction unbound in human plasma at 5 uM after 4 hrs by equilibrium dialysis based LC-MS/MS analysis"}, "[5]": {"molecular_target": "T3, Nuclear receptor ROR-gamma (Homo sapiens, UniProt P51449)", "T3 sequence (P51449 whole entry)": "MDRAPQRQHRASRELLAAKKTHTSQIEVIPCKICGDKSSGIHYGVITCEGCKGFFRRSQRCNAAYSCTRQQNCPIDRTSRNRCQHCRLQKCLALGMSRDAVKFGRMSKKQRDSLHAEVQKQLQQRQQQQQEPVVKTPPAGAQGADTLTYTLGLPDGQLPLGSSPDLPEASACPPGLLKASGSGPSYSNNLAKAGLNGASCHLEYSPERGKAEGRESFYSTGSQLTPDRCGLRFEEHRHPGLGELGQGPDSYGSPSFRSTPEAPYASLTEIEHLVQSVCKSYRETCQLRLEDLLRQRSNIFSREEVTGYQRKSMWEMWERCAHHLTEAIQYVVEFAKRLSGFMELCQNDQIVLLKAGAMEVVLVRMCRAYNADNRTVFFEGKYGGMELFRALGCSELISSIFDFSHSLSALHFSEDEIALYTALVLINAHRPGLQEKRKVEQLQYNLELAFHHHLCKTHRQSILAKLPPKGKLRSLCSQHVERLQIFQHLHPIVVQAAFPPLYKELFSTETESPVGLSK", "description": "Inverse agonist activity at GAL4 DBD-fused RORgammat LBD (unknown origin) expressed in HG5LN cells after 18 hrs by luciferase reporter gene assay"}, "in vitro [6]": {"assay": "in vitro", "details": "human, hepatocytes"}, "[7]": {"details": "rat, microsomes", "description": "Stability in rat microsomes"}, "[8]": {"molecular_target": "T3, Nuclear receptor ROR-gamma", "assay": "Inverse agonist activity at RORgamma in human CD4+ T cells assessed as inhibition of IL-17A release after 4 days by HTRF assay", "format": "cell-based, T-cell"}, "[9]": {"assay": "Photocytotoxicity against human neonatal keratinocytes assessed as decrease in cell viability preincubated for 30 mins followed by 5 J/cm2 UV light irradiation for 15 mins measured after 24 hrs by neutral red dye based assay", "format": "toxicity", "details": "neonatal keratinocyte"}}, "data": [{"smiles": "Cc1cccc(Cl)c1Oc1nn(-c2ccc(C(=O)O)cc2)c2ccc(C(=O)N(C)C)cc12", "values": [{"measurement": "logD", "setting": "physchem", "result": 1.5}, {"measurement": "selectivity ratio at 0.5 h", "setting": "in vitro [1]", "result": 36}, {"measurement": "IC50", "setting": "[2]", "result": "> 10", "unit": "µM"}, {"measurement": "IC50", "setting": "[3]", "result": "> 10", "unit": "µM"}, {"measurement": "fraction unbound at 4 h, 5 µM", "setting": "in vitro [4]", "result": 0.024}, {"measurement": "IC50", "setting": "[5]", "result": 0.12, "unit": "µM"}, {"measurement": "hepatocyte CLint at […], 1 µM", "setting": "in vitro [6]", "result": 54, "unit": "µL/min/1e6 cells"}, {"measurement": "Stability", "setting": "[7]", "result": "Unstable"}, {"measurement": "IC50", "setting": "[8]", "result": 0.15, "unit": "µM"}]}, {"smiles": "CN(C)C(=O)c1ccc2c(c1)c(S(=O)(=O)c1c(Cl)cccc1Cl)nn2-c1ccc(C(=O)O)cc1", "values": [{"measurement": "logD", "setting": "physchem", "result": 0.9}, {"measurement": "IC50", "setting": "[2]", "result": "> 10", "unit": "µM"}, {"measurement": "Activity", "setting": "[9]", "result": "Toxic"}, {"measurement": "IC50", "setting": "[5]", "result": "> 10", "unit": "µM"}]}, {"smiles": "CN(C)C(=O)c1ccc2c(c1)c([S+]([O-])c1c(Cl)cccc1Cl)nn2-c1ccc(C(=O)O)cc1", "note": "(configuration not stated)", "values": [{"measurement": "logD", "setting": "physchem", "result": 0.4}, {"measurement": "IC50", "setting": "[2]", "result": "> 10", "unit": "µM"}, {"measurement": "Activity", "setting": "[9]", "result": "Toxic"}, {"measurement": "IC50", "setting": "[5]", "result": "> 10", "unit": "µM"}]}]}
